# Results: patent publication US4154932A (priority 1977, dated 1979)
# Where two headings read alike, the source gives them in different places.
# Key:
# Cough Response = assay: animal or person; assay type: in vivo, dog; conditions: for ED50: Canis lupus familiaris
# From the text: Comparative Antitussive Effects of (-)-XI, Butorphanol and
# Morphine Sulfate in the Unanesthetized Dog
# [1] = system: withdrawal jumping (abstinence); assay: Primary physical dependence test in mice (withdrawal jumping on naloxone challenge); conditions: repeated sc injections for two days
# Experimental: (§1) Buprenorphine and (-)XI were tested for physical dependence liability in mice. […] The compounds were then tested as substitutes for morphine in withdrawn morphine-dependent mice.
# [2] = system: withdrawn morphine-dependent mice; assay: Substitution for morphine in withdrawn morphine-dependent mice; conditions: 3 to 54 mg/kg sc
# Experimental: as §1
# [3] = system: phenylquinone induced writhings; assay: animal or person; conditions: for ED50: Mus musculus
# Experimental: In vivo testing was conducted on many of the compounds of the present invention.
# [4] = system: opioids, oxymorphone and morphine; assay: Antagonist activity, overall comparison of Table 3; assay type: in vivo
# [5] = Analgetic activity, overall comparison of Table 2; assay type: in vivo
# [6] = system: Morphine Antagonism Rat Tail Flick; assay: Morphine antagonism, Rat Tail Flick (antagonist activity); assay type: in vivo; conditions: Table 3; for ED50: Rattus norvegicus
# Rat Vocalization = Rat Vocalization (analgetic activity); assay type: in vivo; conditions: Table 2; for ED50: Rattus norvegicus
# [7] = Physical dependence liability in man (predicted from mouse models); conditions: prediction from the mouse test model
# Experimental: as §1
# [8] = system: Straub Tail induced by oxymorphone; assay: Antagonism of oxymorphone-induced Straub Tail (antagonist activity); assay type: in vivo, mouse; conditions: for ED50: Mus musculus
# Experimental: ^2 Antagonism of Straub Tail induced by oxymorphone (2 mg/kg, s.c.) i
# Rat Writhing = Rat Writhing (analgetic activity); assay type: in vivo; conditions: Table 2; for ED50: Rattus norvegicus
smiles,measurement,setting,value
"Oc1ccc2c(c1)[C@]13CCN(CC4CC4)[C@H](C2)[C@@H]1CCOC3 [(-)-XI, (-)-17-Cyclopropylmethyl-3-hydroxy-6-oxamorphinan]",Percent Inhibition of Cough Response,"Cough Response; 0.005 mg/kg sc, 15 min",7%
same,Percent Inhibition of Cough Response,"Cough Response; 0.005 mg/kg sc, 30 min",52%
same,Percent Inhibition of Cough Response,"Cough Response; 0.005 mg/kg sc, 60 min",15%
same,Percent Inhibition of Cough Response,"Cough Response; 0.005 mg/kg sc, 120 min",41%
same,Percent Inhibition of Cough Response,"Cough Response; 0.005 mg/kg sc, 180 min",41%
same,Percent Inhibition of Cough Response,"Cough Response; 0.005 mg/kg sc, 240 min",37%
same,Percent Inhibition of Cough Response,"Cough Response; 0.005 mg/kg sc, 300 min",33%
same,Percent Inhibition of Cough Response,"Cough Response; 0.01 mg/kg sc, 15 min",38%
same,Percent Inhibition of Cough Response,"Cough Response; 0.01 mg/kg sc, 30 min",68%
same,Percent Inhibition of Cough Response,"Cough Response; 0.01 mg/kg sc, 60 min",86%
same,Percent Inhibition of Cough Response,"Cough Response; 0.01 mg/kg sc, 120 min",98%
same,Percent Inhibition of Cough Response,"Cough Response; 0.01 mg/kg sc, 180 min",62%
same,Percent Inhibition of Cough Response,"Cough Response; 0.01 mg/kg sc, 240 min",50%
same,Percent Inhibition of Cough Response,"Cough Response; 0.01 mg/kg sc, 300 min",24%
same,Percent Inhibition of Cough Response,"Cough Response; 0.02 mg/kg sc, 15 min",90%
same,Percent Inhibition of Cough Response,"Cough Response; 0.02 mg/kg sc, 30 min",99%
same,Percent Inhibition of Cough Response,"Cough Response; 0.02 mg/kg sc, 60 min",88%
same,Percent Inhibition of Cough Response,"Cough Response; 0.02 mg/kg sc, 120 min",70%
same,Percent Inhibition of Cough Response,"Cough Response; 0.02 mg/kg sc, 180 min",67%
same,Percent Inhibition of Cough Response,"Cough Response; 0.02 mg/kg sc, 240 min",67%
same,Percent Inhibition of Cough Response,"Cough Response; 0.02 mg/kg sc, 300 min",64%
same,Percent Inhibition of Cough Response,"Cough Response; 0.05 mg/kg sc, 15 min",100%
same,Percent Inhibition of Cough Response,"Cough Response; 0.05 mg/kg sc, 30 min",100%
same,Percent Inhibition of Cough Response,"Cough Response; 0.05 mg/kg sc, 60 min",100%
same,Percent Inhibition of Cough Response,"Cough Response; 0.05 mg/kg sc, 120 min",100%
same,Percent Inhibition of Cough Response,"Cough Response; 0.05 mg/kg sc, 180 min",100%
same,Percent Inhibition of Cough Response,"Cough Response; 0.05 mg/kg sc, 240 min",100%
same,Percent Inhibition of Cough Response,"Cough Response; 0.05 mg/kg sc, 300 min",100%
same,ED50,"Cough Response; po, unanesthetized dog, read-out: Oral antitussive ED50",0.04 mg/kg
same,ED50,"Cough Response; sc, unanesthetized dog, read-out: Antitussive ED50",0.006 mg/kg
same,Antitussive potency relative to butorphanol,"Cough Response; dog, in vivo, po",8 times
same,Antitussive potency relative to morphine sulfate,"Cough Response; dog, in vivo, po",16 times
same,Antitussive potency relative to butorphanol,"Cough Response; dog, in vivo, sc",1.7 times
same,Antitussive potency relative to morphine sulfate,"Cough Response; dog, in vivo, sc",approximately 7 times
same,Duration of antitussive activity,"Cough Response; dog, in vivo, sc",significantly longer duration of activity than either butorphanol or morphine sulfate
same,Antitussive activity,"Cough Response; subcutaneous, unanesthetized dog",potent antitussive agent
same,Withdrawal jumping (primary physical dependence),[1],did not exhibit withdrawal jumping (abstinence)
same,Substitution for morphine,[2],no evidence of substitution for morphine
same,ED50,"[3]; central, read-out: Analgetic activity ED50, Intraventricular",0.0012 mg/kg
same,ED50,"[3]; po, read-out: Analgetic activity ED50, Mouse Writhing po",0.3 mg/kg
same,ED50,"[3]; sc, read-out: Agonist Activity, Phenylquinone Writhing ED50",0.028 mg/kg
same,ED50,"[3]; sc, read-out: Analgetic activity ED50, Mouse Writhing sc",0.028 mg/kg
same,Mouse Writhing po/sc,"[3]; mouse, in vivo",11
same,sc/I. Vent.,"[3]; mouse, in vivo, sc",23
same,"Oral/parenteral potency ratio relative to antagonist activity, comparison",[4],superior to butorphanol and about equal to that of buprenorphine
same,Antagonist potency relative to butorphanol,[4]; blocking the effects of oxymorphone and morphine,about twice as potent as butorphanol
same,"Oral/parenteral analgetic potency ratio, comparison",[5],comparable to buprenorphine and approximately ten times better than butorphanol
same,"Oral analgetic potency, comparison",[5]; oral,markedly better than butorphanol and equivalent to buprenorphine
same,ED50,"[6]; po, read-out: Antagonist activity ED50, Morphine Antagonism Rat Tail Flick po",~3 mg/kg
same,ED50,"[6]; sc, read-out: Antagonist activity ED50, Morphine Antagonism Rat Tail Flick sc",0.26 mg/kg
same,Morphine Antagonism Rat Tail Flick po/sc,[6]; ratio of ED50 po/sc,12
same,ED50,"Rat Vocalization; po, read-out: Analgetic activity ED50, Rat Vocalization po",0.11 mg/kg
same,ED50,"Rat Vocalization; sc, read-out: Analgetic activity ED50, Rat Vocalization sc",0.006 mg/kg
same,Rat Vocalization po/sc,Rat Vocalization; ratio of ED50 po/sc,18
same,Predicted physical dependence liability in man,[7],nil or of a low order
same,ED50,"[8]; sc, mice, Table 1, oxymorphone 2 mg/kg, s.c., read-out: Antagonist Activity, Oxymorphone Straub Tail ED50",0.44 mg/kg
same,ED50,"[8]; po, Table 3, read-out: Antagonist activity ED50, Oxymorphone-Induced Straub Tail po",14 mg/kg
same,ED50,"[8]; sc, Table 3, read-out: Antagonist activity ED50, Oxymorphone-Induced Straub Tail sc",0.44 mg/kg
same,Oxymorphone-Induced Straub Tail po/sc,"[8]; ratio of ED50 po/sc, Table 3",32
same,ED50,"Rat Writhing; po, read-out: Analgetic activity ED50, Rat Writhing po",0.22 mg/kg
same,ED50,"Rat Writhing; sc, read-out: Analgetic activity ED50, Rat Writhing sc",0.021 mg/kg
same,Rat Writhing po/sc,Rat Writhing; ratio of ED50 po/sc,11
